Blank lines part the entries; values can stand above or below the molecule they belong to.
What was measured:
Monoglyceride lipase [1] = molecular target: T1, Monoglyceride lipase (Homo sapiens, UniProt Q99685); assay: Inhibition of human recombinant MAGL using 4-nitrophenylacetate as substrate after 30 mins
T1 sequence (Q99685 whole entry): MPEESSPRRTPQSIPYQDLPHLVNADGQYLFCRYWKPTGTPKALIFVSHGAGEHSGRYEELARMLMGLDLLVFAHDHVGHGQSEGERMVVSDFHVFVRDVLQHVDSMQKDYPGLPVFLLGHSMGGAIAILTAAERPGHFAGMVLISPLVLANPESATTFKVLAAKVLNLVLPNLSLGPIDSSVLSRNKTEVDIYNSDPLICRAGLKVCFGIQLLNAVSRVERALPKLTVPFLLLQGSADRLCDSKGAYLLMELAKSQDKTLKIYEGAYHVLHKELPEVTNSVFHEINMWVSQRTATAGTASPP

MCF7 = assay: Cytotoxicity against human MCF7 cells assessed as growth inhibition after 96 hrs; conditions: MCF7, 96 h
[2] = Cytotoxicity against human MSC assessed as growth inhibition after 96 hrs
MDA-MB-231 = assay: Cytotoxicity against human MDA-MB-231 cells assessed as growth inhibition after 96 hrs; conditions: MDA-MB-231, 96 h
[3] = Cytotoxicity against human OVCAR3 cells assessed as growth inhibition after 96 hrs; conditions: OVCAR-3, 96 h
[4] = Cytotoxicity against human COV318 cells assessed as growth inhibition after 96 hrs; conditions: COV318, 96 h
Monoglyceride lipase [5] = molecular target: T1, Monoglyceride lipase; assay: Inhibition of human recombinant MAGL using 4-nitrophenylacetate as substrate preincubated for 30 mins followed by substrate addition
Monoglyceride lipase [6] = molecular target: T1, Monoglyceride lipase; assay: Inhibition of human recombinant MAGL using 4-nitrophenylacetate as substrate
Monoglyceride lipase [7] = molecular target: T1, Monoglyceride lipase; assay: Inhibition of human recombinant MAGL using 4-nitrophenylacetate as substrate preincubated for 60 mins followed by substrate addition

IC50 (Monoglyceride lipase [1]): > 500 µM
SMILES: COc1ccc(-c2nnn(CC(=O)N3CCN(c4ccc(F)cc4)CC3)n2)cc1

IC50 (Monoglyceride lipase [1]): > 500 µM
SMILES: COc1ccc(-c2nnc(SCC(=O)N3CCN(c4ccc(OC)cc4)CC3)o2)cc1

IC50 (Monoglyceride lipase [1]): > 500 µM
SMILES: COc1ccc(CNC(=O)c2ccc3nc(-c4ccoc4)c(-c4ccoc4)nc3c2)cc1

More lines, now with the values behind:

SMILES: O=C(Cc1ccccc1)N1CCC(C(=O)N2CCN(c3ccc(F)cc3)CC2)CC1
IC50 (Monoglyceride lipase [1]): > 500 µM

SMILES: CCOc1ccc(N2CC(C(=O)Nc3ccc(C(C)=O)cc3)CC2=O)cc1 (stereo not given)
IC50 (Monoglyceride lipase [1]): > 500 µM

SMILES: O=C(c1ccc([N+](=O)[O-])cc1)c1ccc2c(c1)C(=O)N(c1cccnc1)C2=O
IC50 (Monoglyceride lipase [1]): > 500 µM

SMILES: COc1ccc(C(=O)N2CCC(C(=O)c3ccc(Cl)cc3)CC2)cc1
IC50 (MCF7): 19.9 µM | IC50 [2]: > 300 µM | IC50 (MDA-MB-231): 75.3 µM | IC50 [3]: 50.7 µM | IC50 [4]: 73.9 µM

SMILES: O=C(Cn1nnc(-c2ccc(N3CCOCC3)cc2)n1)N1CCN(c2ccccc2)CC1
IC50 (Monoglyceride lipase [1]): > 500 µM

SMILES: COc1nn(-c2ccc(NC(=O)OCc3ccccc3)c(C)c2)c(=O)o1
IC50 (MCF7): 4.2 µM | IC50 [2]: 276 µM | IC50 (Monoglyceride lipase [5]): 0.026 µM | IC50 (Monoglyceride lipase [6]): 0.146 µM | IC50 (Monoglyceride lipase [7]): 0.009 µM | IC50 (MDA-MB-231): 46 µM | IC50 [3]: > 79.8 µM | IC50 [4]: 107 µM

From ChEMBL document CHEMBL3297664, “Identification and characterization of a new reversible MAGL inhibitor” (Bioorg Med Chem, 2014)
